Holding throughout (assay): inhibition of tumour cell growth, NCI panel, 48 h
The test system of test [1] is HCT-116.
The subject of test [2] is 786-0.
Test [3] relates to HOP-92.
The subject of test [4] is SN12C.
Test [5] deals with HOP-62.
Test [6] has as its system T47D.
Test [7] deals with CAKI-1.
Test [8] concerns NCI-H460.
Test [9] has as its system MDA-N.
The subject of test [10] is MCF7.
Test [11] has as its system SK-MEL-5.
Test [12] concerns A549.
Test [13] concerns SK-OV-3.
Test [14] deals with SF-268.
Test [15] deals with SR.
In test [16] the test system is M14.
Test [17] has as its system DU-145.
Test [18] deals with SF-295.
For test [19], the system named is UO-31.
Test [20] concerns SK-MEL-2.

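Five compound concentrations were applied to cells in 96-well plates for 48 hours; endpoints were derived by simple linear interpolation of the resulting dose-response curve. GI50 = concentration required for 50% inhibition of growth.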 The source made the active and inactive calls. No stated cut-off is given here; in the data, active = GI50 up to about 1.1 µM and inactive = higher. Where only a bound is given, the exact number is not on record here.

As to `CCN(CC)c1ccc(/C=C(\C#N)c2nc(N)nc(N3N=C(C)CC3(C)C)n2)cc1`, the GI50 is 15.9 µM (inactive) in [1]; 13.4 µM (inactive) in test [2]; 6.97 µM (inactive) in test [3]; 27.3 µM (inactive) in test [4]; 11.1 µM (inactive) in test [5]; 17.2 µM (inactive) in test [6]. Moreover, the GI50 in test [7] was 15.1 µM (inactive); in test [8], 18.3 µM (inactive); in test [9] it was 24.1 µM (inactive); in [10] it was 32 µM (inactive); in test [11] it was 21.6 µM (inactive); in [12], 16.2 µM (inactive). Moreover, the GI50 in test [13] was 6.61 µM (inactive); in [14], 15 µM (inactive); in test [15], 12.2 µM (inactive); in [16] it was 19.2 µM (inactive); in test [17], 9.64 µM (inactive); in test [18], 16.6 µM (inactive). Besides, the GI50 is 22.4 µM (inactive) in [19] and 15.6 µM (inactive) in [20].

In the case of `COc1ccc(C(OCC2OC(n3ccc(Oc4c(F)c(F)c(F)c(F)c4F)nc3=O)CC2OP(OCCC#N)N(C(C)C)C(C)C)(c2ccccc2)c2ccc(OC)cc2)cc1` (stereo not given), the GI50 in [1], in test [2], in [3], in test [4], in [5] and in [6] was > 100 µM (inactive) each time. In addition, the GI50 in [7] is > 100 µM (inactive); in [8], > 100 µM (inactive); in test [9], > 100 µM (inactive); in [10] it was > 100 µM (inactive); in test [11], 68.2 µM (inactive); in [12], > 100 µM (inactive). For the same molecule, the GI50 in test [13], in test [14], in [15], in [16], in [17] and in test [18] was > 100 µM (inactive) each time. Further, the GI50 in test [19] and in test [20] was > 100 µM (inactive) throughout.

Take `CCOC(=O)C(=O)/C(=C/N1C(=O)CC(=O)NC1=S)C(=O)OCC`: the GI50 in test [1] was > 100 µM (inactive); in test [2], > 100 µM (inactive); in test [3], 9.29 µM (inactive); in [4], > 100 µM (inactive); in test [5], > 100 µM (inactive); in [6] it was > 100 µM (inactive). Besides, the GI50 in test [7], in test [8], in test [9], in [10], in [11] and in test [12] was > 100 µM (inactive) throughout. Further, the GI50 in test [13], in [14], in test [15], in test [16], in [17] and in test [18] was > 100 µM (inactive) throughout. The GI50 in [19] was 26.8 µM (inactive); in test [20], > 100 µM (inactive).

With `COC(=O)[C@@H]1C[C@H]([Se]c2ccccc2)CN1S(=O)(=O)c1ccc(C)cc1`, the GI50 was 67.3 µM (inactive) in test [1]; > 100 µM (inactive) in test [2]; > 100 µM (inactive) in test [3]; > 100 µM (inactive) in test [4]; > 100 µM (inactive) in [5]; 35.7 µM (inactive) in [6]. For the same molecule, the GI50 is > 100 µM (inactive) in [7]; > 100 µM (inactive) in test [8]; > 100 µM (inactive) in test [9]; 60.3 µM (inactive) in test [10]; 45.2 µM (inactive) in [11]; 51.8 µM (inactive) in test [12]. In addition, the GI50 in [13] is > 100 µM (inactive); in test [14], 27.9 µM (inactive); in [15], 32.1 µM (inactive); in test [16] it was > 100 µM (inactive); in [17] it was > 100 µM (inactive); in [18], 40.9 µM (inactive). Also, the figures for the GI50 in test [19] and in [20] were 51.9 µM (inactive) and 21.4 µM (inactive), respectively.

Turning to `N#Cc1c(/C=C/c2ccccc2)c2c([nH]c1=S)CCCCC2`, the GI50 in test [1], in test [2], in test [3], in test [4], in test [5] and in test [6] was > 100 µM (inactive) in each case. The GI50 was > 100 µM (inactive) in test [7]; 4.9 µM (inactive) in [8]; > 100 µM (inactive) in [9]; > 100 µM (inactive) in test [10]; > 100 µM (inactive) in test [11]; > 100 µM (inactive) in test [12]. The GI50 is > 100 µM (inactive) in test [13]; > 100 µM (inactive) in test [14]; 84.7 µM (inactive) in test [15]; > 100 µM (inactive) in test [16]; > 100 µM (inactive) in test [17]; > 100 µM (inactive) in test [18]. The GI50 in [19] and in test [20] was > 100 µM (inactive) each time.

For the molecule `O=C1/C(=C/c2ccccc2)CCc2ccc(Cl)nc21`, the GI50 in test [1] is 2.55 µM (inactive); in test [2] it was 7.18 µM (inactive); in test [3] it was 15.8 µM (inactive); in [4], 6.03 µM (inactive); in test [5], 19.7 µM (inactive); in test [6], 4.85 µM (inactive). The GI50 in test [7] was 3.77 µM (inactive); in test [8], 18.2 µM (inactive); in test [9] it was 4 µM (inactive); in test [10], 1.79 µM (inactive); in test [11], 5.31 µM (inactive); in test [12], 16.6 µM (inactive). Also, the GI50 in [13] is 31.6 µM (inactive); in [14], 12.1 µM (inactive); in test [15], 2.8 µM (inactive); in test [16] it was 8.04 µM (inactive); in test [17] it was 10 µM (inactive); in [18], 17.2 µM (inactive). Further, the GI50 was 7.64 µM (inactive) in test [19] and 16.7 µM (inactive) in test [20].

For the molecule `CC(C)OC(=O)c1ccc(NCC2=CC(=O)C=CC2=O)cc1Cl`, the GI50 in [1] is 19.3 µM (inactive); in test [2] it was 14.1 µM (inactive); in test [3], 4.89 µM (inactive); in [4] it was 16.1 µM (inactive); in test [5] it was 32.5 µM (inactive); in test [6], 2.3 µM (inactive). The GI50 in test [7] is 2.19 µM (inactive); in test [8], 19.2 µM (inactive); in test [9], 8.39 µM (inactive); in test [10], 14.9 µM (inactive); in [11], 18.7 µM (inactive); in test [12], 31.9 µM (inactive). Further, the GI50 in [13] is 31.4 µM (inactive); in [14], 12.1 µM (inactive); in [15] it was 1.58 µM (inactive); in [16], 27.8 µM (inactive); in test [17], 18.3 µM (inactive); in test [18], 17.8 µM (inactive). Moreover, the values for the GI50 in test [19] and in [20] were 3.29 µM (inactive) and 31.7 µM (inactive), respectively.

For `Cc1cc2c(cc1C)[n+]([O-])c(C(F)(F)F)c(C(=O)c1ccccc1)[n+]2[O-]`, the GI50 in [1] was 2.24 µM (inactive); in test [2], 3.47 µM (inactive); in test [3], 0.167 µM (active); in test [4] it was 2.74 µM (inactive); in test [5] it was 0.299 µM (active); in test [6], 0.724 µM (active). Further, the GI50 in test [7] is 0.76 µM (active); in [8] it was 1.26 µM (inactive); in [9] it was 3.35 µM (inactive); in [10], 3.27 µM (inactive); in test [11], 1.73 µM (inactive); in test [12] it was 1.42 µM (inactive). The GI50 was 4 µM (inactive) in test [13]; 1.91 µM (inactive) in test [14]; 0.527 µM (active) in [15]; 3.73 µM (inactive) in test [16]; 1.62 µM (inactive) in [17]; 2.4 µM (inactive) in test [18]. Moreover, the GI50 in test [19] was 0.484 µM (active); in [20], 4.89 µM (inactive).

As to `Cc1cc2c(O)c(c1)CN(CC(=O)O)Cc1cc(C)cc(c1O)CN(CC(=O)O)Cc1cc(C)cc(c1O)CN(CC(=O)O)C2`, the GI50 in test [1] is > 100 µM (inactive); in test [2] it was > 100 µM (inactive); in test [3] it was 64.4 µM (inactive); in [4], > 100 µM (inactive); in test [5] it was > 100 µM (inactive); in test [6], > 100 µM (inactive). Also, the GI50 in test [7], in [8], in [9], in [10], in test [11] and in [12] was > 100 µM (inactive) throughout. The GI50 in test [13], in test [14], in test [15], in [16], in [17] and in [18] was > 100 µM (inactive) each time. In addition, the GI50 in test [19] and in [20] was > 100 µM (inactive) each time.

`N#Cc1nc2ccccc2nc1N1CCN(c2ccc([N+](=O)[O-])cc2)CC1`: the GI50 in test [1], in [2], in [3], in test [4], in test [5] and in test [6] was > 100 µM (inactive) in each case. The GI50 in [7], in test [8], in test [9], in test [10], in [11] and in [12] was > 100 µM (inactive) throughout. Besides, the GI50 in [13] was > 100 µM (inactive); in test [14] it was > 100 µM (inactive); in test [15] it was 0.0339 µM (active); in [16], > 100 µM (inactive); in [17], > 100 µM (inactive); in [18], > 100 µM (inactive). Besides, the GI50 in test [19] and in [20] was > 100 µM (inactive) each time.

(Values after ChEMBL document CHEMBL1201862, “PubChem BioAssay data set” (2004).)
